Experiments:
Format in all cases: cell-based, mouse
[1] = test system: Fas; experiment: Immunoblot analysis of Fas re-expression in K-ras NIH 3T3 cells; settings: 10 μM 5-aza for 72 h
Description: (§1) Cell culture. NIH 3T3 (ATCC# CRL-1658) and K:Molv NIH 3T3 (ATCC# CRL-6361; referred to here as K-ras NIH 3T3) cells were maintained in DMEM supplemented with 10% FCS at 37° C. and 5% CO2. For 5-aza-2′-deoxycytidine (5-aza) treatment, K-ras NIH 3T3 cells were treated with 10 μM 5-aza for 72 h.
Immunoblot analysis. To prepare cell extracts, K-ras NIH 3T3 knockdown cell lines were harvested 7 days following retroviral transduction and puromycin selection (1.5 μg ml^−1) and lysed by boiling in 1× SDS sample buffer (Laemmli buffer) for 5 min. Proteins were resolved by 12% SDS-PAGE. Immunoblot analysis was performed using an anti-Fas (sc-716; Santa Cruz) or anti-p21 Ras (ab16795; Abcam) antibody to monitor expression of K-Ras (as a loading control), and an appropriate HRP-conjugated secondary antibody. Proteins were visualized using SuperSignal West Pico Luminol/Enhancer Solution (Pierce).

[2] = test system: Sfrp1, Par4/Pawr, Plagl1, H2-K1 and Lox; experiment: qRT-PCR expression of other epigenetically silenced genes in K-ras NIH 3T3 cells; settings: 10 μM 5-aza for 72 h
Description: as §1
(§2) Chromatin immunoprecipitation (ChIP) and methylated DNA immunoprecipitation (MeDIP). ChIP assays were performed using extracts prepared 7 days following retroviral transduction and puromycin selection. […] MeDIP and ChIP products were visualized by autoradiography, or analyzed by quantitative real-time PCR using Platinum SYBR Green qPCR SuperMix-UDG with Rox (Invitrogen). […] Quantitative real time RT-PCR. […] Reverse transcription was performed using SuperScript II Reverse Transcriptase (Invitrogen) as per the manufacturer's instructions, followed by quantitative real-time PCR as described above. […] Tumour dimensions were measured every 3 days from the time of appearance of the tumours, and tumour volume was calculated using the formula π/6×(length)×(width)^2. […]

[3] = test system: Fas promoter; experiment: Methylated DNA immunoprecipitation (MeDIP) of the Fas promoter; settings: K-ras NIH 3T3 cells, 10 μM 5-aza for 72 h
Text: To facilitate analysis of the methylation status of these three regions in the 28 K-ras NIH 3T3 KD cell lines we established and validated a rapid methylated DNA immunoprecipitation (MeDIP) assay, in which the antibody is directed against 5-methyl-cytosine (Weber, M. et al., Nat. Genet. 37, 853-862 (2005)). […] We then assessed the three hypermethylated Fas promoter regions in each of the 28 K-ras NIH 3T3 KD cell lines.
as §2

[4] = test system: Fas promoter; experiment: Bisulphite sequencing of the Fas promoter; settings: shRNA knockdown
Description: Bisulphite sequencing. Bisulphite modification was carried out essentially as described (Frommer, M. et al., Proc. Natl. Acad. Sci. USA 89, 1827-1831 (1992)) except that hydroquinone was used at a concentration of 125 mM during bisulphite treatment carried out in the dark and DNA was desalted on Qiaquick columns (Qiagen) after the bisulphite reaction. The regions analyzed were amplified by nested PCR. The first round comprised 24 cycles at 94° C. for 1 min, 48° C. for 1 min 30 s, and 72° C. for 1 min. One-tenth of the product was used as substrate for the second round of PCR comprising 28 cycles at 94° C. for 1 min, 48° C. for 1 min 30 s, 72° C. for 1 min.

With `Nc1ncn([C@H]2C[C@H](O)[C@@H](CO)O2)c(=O)n1` [5-aza, 5-aza-2′-deoxycytidine] the Fas expression [1] was “restored Fas expression”, the “expression of Sfrp1, Par4/Pawr, Plagl1, H2-K1 and Lox (all five genes)” value [2] was “re-expressed” and the “hypermethylation of Fas promoter TSS/DS region (MeDIP)” value [3] was “not hypermethylated”.

B1: DNMT1: shRNA knocking down DNMT1; Open Biosystems V2MM_46797 or synthesized shRNA SEQ ID NO: 5 (nucleic acid)
chain: TGCTGTTGACAGTGAGCGCGCCCATCCTCAGGGACCATATTAGTGAAGCCACAGATGTAATATGGTCCCTGAGGATGGGCTTGCCTACTGCCTCGGA
With B1 the “hypermethylation of three Fas promoter regions (bisulphite sequencing)” value ([4]; H-ras transformed C3H10T1/2 cells) was “not” and the “hypermethylation of TSS/DS region of the Fas promoter (bisulphite sequence analysis)” value ([4]; K-ras NIH 3T3 cells) was “no longer hypermethylated”.

— patent US20100137411A1, “RAS-MEDIATED EPIGENETIC SILENCING EFFECTORS AND USES THEREOF” (University of Massachusetts, priority 2007, published 2010)
